Assay results as given in PMC4810081, “Venetoclax (ABT-199) Might Act as a Perpetrator in Pharmacokinetic Drug–Drug Interactions” (Pharmaceutics, 2016).

Assays:
UGT1A3 = experiment: Induction assay, UGT1A3 mRNA by real-time RT-PCR in LS180 cells; type: in vitro ADME, human; conditions: four days, 10 µM
Experimental: (§1) LS180 cells. The human colon adenocarcinoma cell line LS180 (available at ATCC, Manassas, VA, USA) is one of the standard models for investigating pregnane X receptor (PXR) and aryl hydrocarbon receptor (AhR) mediated induction and was thus used for induction experiments. Cells were cultured under standard cell culture conditions with DMEM supplemented with 10% FCS, 2 mM of glutamine, 100 U/mL of penicillin, 100 µg/mL of streptomycin sulfate, and 0.1 mM of nonessential amino acids.
(§2) For the induction experiments, LS180 cells were seeded in 75 cm^2 culturing flasks and incubated for three days. […]
(§3) RNA was isolated using the GenElute™ Mammalian Total RNA Miniprep Kit, and cDNA was synthesized with the RevertAid™ H Minus First Strand cDNA Synthesis Kit according to the manufacturer's instructions. mRNA expression was quantified by real-time RT-PCR with the LightCycler® 480 (Roche Applied Science, Mannheim, Germany) as described previously. […] Data were evaluated via calibrator-normalized relative quantification with efficiency correction using the LightCycler® 480 software version 1.5 (Roche Applied Science, Mannheim, Germany). […] The following target genes were quantified: CYP1A1, CYP1A2, CYP3A4, ABCB1, ABCC2, ABCG2, SLCO1B1 (coding for OATP1B1), UDP-glucuronosyltransferase 1A3 (UGT1A3), and UGT1A9.

AhR = system: T1, AhR; experiment: AhR reporter gene assay in AZ-AHR cells; type: cell-based, human; conditions: 24 h, up to 10 µM
T1 construct: endogenous in cells; host or cells: AZ-AHR (HepG2 with stably integrated AhR-responsive luciferase reporter; gift of Z. Dvorak)
Experimental: AZ-AHR cells. The human hepatoma cell line HepG2 stably transfected with a construct containing several AhR binding sites upstream of luciferase reporter gene was used to investigate whether venetoclax can activate AhR. Cells were kindly provided by Z. Dvorak (Palacky University, Olomouc, Czech Republic).
To test whether the induction of CYP1A1 or UGTs can be attributed to AhR activation by venetoclax, an AhR reporter gene assay was applied. 60,000 AZ-AhR cells were seeded into each well of 96-well plates with clear bottom and clear lid for luminometry. After incubation for 24 h, cells were treated in triplicate with venetoclax (0.1–10 µM) or vehicle control (0.2% DMSO) for a further 24 h. The assay was performed with the Steady-Glo™ Luciferase Assay System according to the manufacturer’s instructions. Drug-induced increases of AhR receptor activity were normalized to activity of non-drug treated controls, which was set to 1 (= 100%). The experiment was performed in triplicate.

CYP1A2 = target: T2, CYP1A2 (Homo sapiens, UniProt P05177); experiment: CYP1A2 inhibition, P450-Glo CYP1A2 Screening System; type: in vitro ADME; conditions: luciferin-ME substrate, 0.05–100 µM tested
T2 construct: purchased Promega Corporation (Madison, WI, USA)
T2 sequence (P05177 whole entry): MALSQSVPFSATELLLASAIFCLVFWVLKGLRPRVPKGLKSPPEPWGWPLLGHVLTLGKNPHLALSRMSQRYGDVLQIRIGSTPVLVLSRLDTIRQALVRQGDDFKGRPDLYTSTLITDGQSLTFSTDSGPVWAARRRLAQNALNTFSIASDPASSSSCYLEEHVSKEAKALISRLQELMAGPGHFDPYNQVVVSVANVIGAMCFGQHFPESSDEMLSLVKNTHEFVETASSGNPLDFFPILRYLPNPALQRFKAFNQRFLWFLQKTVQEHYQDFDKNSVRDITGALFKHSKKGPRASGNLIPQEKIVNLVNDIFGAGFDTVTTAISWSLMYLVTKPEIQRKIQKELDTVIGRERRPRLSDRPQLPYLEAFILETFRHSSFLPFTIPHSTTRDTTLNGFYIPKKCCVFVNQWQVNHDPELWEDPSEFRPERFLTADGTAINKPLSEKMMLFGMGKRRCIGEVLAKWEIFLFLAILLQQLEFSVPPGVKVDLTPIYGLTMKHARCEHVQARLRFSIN
Experimental: Inhibition studies for CYP2B6, CYP2D6, CYP2C19 and CYP3A4 were performed with the CYP2B6/EFC, CYP2D6/AMMC, the CYP2C19/CEC, and the CYP3A4/BFC High Throughput Inhibitor Screening Kit according to the manufacturer’s instructions. The kits contain the respective recombinant CYP and fluorogenic substrates, which are blocked dyes emitting a fluorescence signal when cleaved by the enzyme. For testing CYP1A2 inhibition, the P450-Glo CYP1A2 Screening System was used according to the manufacturer’s instructions. The kit contains the luminogenic CYP1A2 substrate luciferin-ME, which is converted by CYP1A2 into luciferin-generating light when incubated with the luciferin detection reagent of the kit. Eight concentrations of venetoclax in duplicates (0.009–20 µM) were tested in the fluorescence assays, and eight concentrations in triplicate (0.05–100 µM) were tested for the luminogenic assay. Each experiment was conducted in triplicate.

OATP1B3 = target: T3, OATP1B3 (Homo sapiens, UniProt Q9NPD5); experiment: OATP1B3 inhibition, 8-FcA uptake in HEK-OATP1B3 cells; type: in vitro ADME
T3 construct: expressed in transfected cells; host or cells: HEK293 (HEK-OATP1B3; gift of D. Keppler)
T3 sequence (Q9NPD5 whole entry): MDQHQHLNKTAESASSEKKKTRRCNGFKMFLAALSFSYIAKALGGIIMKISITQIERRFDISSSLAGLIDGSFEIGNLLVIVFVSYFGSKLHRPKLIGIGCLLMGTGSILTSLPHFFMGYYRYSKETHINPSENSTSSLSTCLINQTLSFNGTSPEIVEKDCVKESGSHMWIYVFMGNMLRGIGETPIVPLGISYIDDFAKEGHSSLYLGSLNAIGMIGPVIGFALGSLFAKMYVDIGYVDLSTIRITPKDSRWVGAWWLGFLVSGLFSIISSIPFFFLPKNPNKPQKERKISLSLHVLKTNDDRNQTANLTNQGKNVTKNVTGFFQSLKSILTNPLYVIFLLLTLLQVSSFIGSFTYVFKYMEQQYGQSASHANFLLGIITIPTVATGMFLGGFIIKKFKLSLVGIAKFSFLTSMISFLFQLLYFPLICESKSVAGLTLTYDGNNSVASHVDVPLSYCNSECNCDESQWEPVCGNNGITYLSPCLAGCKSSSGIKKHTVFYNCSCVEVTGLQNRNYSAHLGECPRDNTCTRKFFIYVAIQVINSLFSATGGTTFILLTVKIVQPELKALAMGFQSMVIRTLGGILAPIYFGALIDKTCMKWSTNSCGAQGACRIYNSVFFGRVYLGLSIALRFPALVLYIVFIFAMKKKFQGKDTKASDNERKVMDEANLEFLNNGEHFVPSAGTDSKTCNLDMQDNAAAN
Experimental: HEK293 cells. For assessing inhibition of OATP1B1 and OATP1B3, the human embryonic kidney cell line HEK293 stably transfected with OATP1B1 (HEK-OATP1B1), OATP1B3 (HEK-OATP1B3), or the empty control vector (HEK293-VCG418) were used. Cells were cultured under standard cell culture conditions with DMEM supplemented with 10% FCS, 2 mM of glutamine, 100 U/mL of penicillin, 100 µg/mL of streptomycin sulfate, and 800 µg/mL of G418 to maintain over-expression. Cells were kindly provided by D. Keppler (German Cancer Research Centre, Heidelberg, Germany).
Inhibition of OATP1B1 and OATP1B3 was analyzed in HEK-OATP1B1 and HEK-OATP1B3 cells by quantifying the uptake of the fluorescent substrate 8-FcA by flow cytometry as described previously. HEK293-VCG418 cells were used as a control. Inhibition of OATPs leads to a reduced uptake of 8-FcA into the cells. Each experiment was performed at least in triplicate, and venetoclax was tested from 0.05 up to 100 µM.

CYP3A4 = experiment: Induction assay, CYP3A4 mRNA by real-time RT-PCR in LS180 cells; type: in vitro ADME, human; conditions: four days, 0.01–10 µM
Experimental: as §1, §2, §3

[1] = system: cell lines used for P-gp, BCRP, and OATP inhibition assays; experiment: Cytotoxicity assay (Cytotoxicity Detection Kit); type: cell-based; conditions: up to 100 µM, all cell lines used
Experimental: Prior to P-gp, BCRP, and OATP inhibition assays, venetoclax was tested in the respective cell lines for cytotoxic effects with the Cytotoxicity Detection Kit (Roche Applied Science, Mannheim, Germany). Venetoclax was not cytotoxic up to 100 µM in all cell lines used.

LS180 cells = experiment: Growth inhibition (proliferation) assay in LS180 cells; type: cell-based; conditions: Homo sapiens, crystal violet staining
Experimental: as §1
Growth inhibition assays in LS180 cells were conducted to determine suitable maximum concentrations for the induction assay without profound antiproliferative effects. Proliferation was quantified by crystal violet staining of the surviving cells as described previously. Each experiment was performed at least in triplicate with n = 8 wells for each concentration (0.1–100 µM). The IC20 for proliferation inhibition by venetoclax was 8.4 ± 1.0 µM; thus, the maximum concentration for the induction assay was set to 10 µM, ensuring that about 80% of the cells will survive.

Bcl-xL = system: Bcl-xL; design: method as in PMID 26639348, PMID 23291630; conditions: cited from earlier work

In the case of `CC1(C)CCC(CN2CCN(c3ccc(C(=O)NS(=O)(=O)c4ccc(NCC5CCOCC5)c([N+](=O)[O-])c4)c(Oc4cnc5[nH]ccc5c4)c3)CC2)=C(c2ccc(Cl)cc2)C1` [Venetoclax], the “mRNA expression of UGT1A3” value (UGT1A3) is reported as “induced”, the “luciferase activity in the AhR reporter gene assay” value (AhR) is reported as “did not increase” and the “IC50 CYP1A2 inhibition” value (CYP1A2) is reported as “no inhibition”. The IC50 (OATP1B3) was 26 ± 9.6 µM, the “mRNA expression of CYP3A4” value (CYP3A4) was “unchanged” and the cytotoxic effects [1] was “not cytotoxic”. The IC20 (LS180 cells) was 8.4 ± 1 µM and the Bcl-xL inhibition (Bcl-xL) was “does not inhibit”.
